Results as given in US9302999B2, “Substituted triazoles as herbicides” (E. I. DU PONT DE NEMOURS AND COMPANY, priority 2012, dated 2016).

Legend:
Type in all cases: in vivo
[1] = test system: ducksalad (Heteranthera limosa); assay: Test C flooded paddy test: ducksalad; conditions: scale 0 to 100 (0 no effect, 100 complete control)
Procedure, shortened: (§1)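 Rating: visual, 0–100 (100 = complete control), versus untreated controls after 13 to 15 greenhouse days. Treatment went into paddy water held at 3 cm over the soil, on plants grown to two leaves.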

rice (Oryza sativa) = assay: Test C flooded paddy test: rice; conditions: scale 0 to 100 (0 no effect, 100 complete control)
Procedure, shortened: as §1

[2] = test system: barnyardgrass (Echinochloa crus-galli); assay: Test C flooded paddy test: barnyardgrass; conditions: scale 0 to 100 (0 no effect, 100 complete control)
Procedure, shortened: as §1

[3] = test system: velvetleaf (Abutilon theophrasti); assay: Test A pre-/postemergence: velvetleaf
Procedure, shortened: (§2)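 Injury was scored visually on a 0 (no effect) to 100 (complete control) scale versus untreated controls roughly ten days after treatment in the greenhouse. Compounds, formulated in surfactant-containing non-phytotoxic solvent, went on as soil-directed preemergence spray or postemergence to one- to two-leaf plants 2–10 cm tall.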

[4] = test system: morningglory (Ipomoea spp.); assay: Test A pre-/postemergence: morningglory
Procedure, shortened: as §2

[5] = test system: sedge, umbrella (small-flower umbrella sedge, Cyperus difformis); assay: Test C flooded paddy test: sedge, umbrella; conditions: scale 0 to 100 (0 no effect, 100 complete control)
Procedure, shortened: as §1

corn (Zea mays) = assay: Test A pre-/postemergence: corn
Procedure, shortened: as §2

[6] = test system: wheat (Triticum aestivum); assay: Test A pre-/postemergence: wheat
Procedure, shortened: as §2

[7] = test system: barnyardgrass (Echinochloa crus-galli); assay: Test A pre-/postemergence: barnyardgrass
Procedure, shortened: as §2

[8] = test system: foxtail, giant (giant foxtail, Setaria faberii); assay: Test A pre-/postemergence: foxtail, giant
Procedure, shortened: as §2

[9] = test system: pigweed (Amaranthus retroflexus); assay: Test A pre-/postemergence: pigweed
Procedure, shortened: as §2

[10] = test system: crabgrass, large (large crabgrass, Digitaria sanguinalis); assay: Test A pre-/postemergence: crabgrass, large
Procedure, shortened: as §2

[11] = Flood (flooded paddy test), 125 g ai/ha, visual rating after 13 to 15 days
[12] = Flood (flooded paddy test), 250 g ai/ha, visual rating after 13 to 15 days
[13] = Postemergence, 125 g ai/ha, 0 to 100 scale, 0 is no effect, 100 is complete control
[14] = Postemergence, 500 g ai/ha, visual rating on 0 to 100 scale (0 no effect, 100 complete control), approximately ten days
[15] = Preemergence, 125 g ai/ha, 0 to 100 scale where 0 is no effect and 100 is complete control
[16] = Preemergence, 500 g ai/ha, 0 to 100 scale, 0 is no effect, 100 is complete control
[17] = Preemergence, 125 g ai/ha, 0 to 100 scale (0 no effect, 100 complete control)
[18] = Postemergence, 1000 g ai/ha, visual rating on 0 to 100 scale (0 no effect, 100 complete control), approximately ten days
[19] = Preemergence, 1000 g ai/ha, 0 to 100 scale, 0 is no effect, 100 is complete control

Cc1nn(-c2ccc(C(F)(F)F)cn2)nc1C(=O)c1cccc(C(F)(F)F)c1 [Compound 107]
Plant response rating, Ducksalad [1, 11]: 20
Plant response rating, Ducksalad [1, 12]: 40
Plant response rating, Ducksalad ([1]; Flood, 31 g ai/ha): 0
Plant response rating, Ducksalad ([1]; Flood, 62 g ai/ha): 0
Plant response rating, Rice (rice (Oryza sativa); [11]): 0
Plant response rating, Rice (rice (Oryza sativa); [12]): 25
Plant response rating, Rice (rice (Oryza sativa); Flood, 31 g ai/ha): 0
Plant response rating, Rice (rice (Oryza sativa); Flood, 62 g ai/ha): 0
Plant response rating, Barnyardgrass [2, 11]: 20
Plant response rating, Barnyardgrass [2, 12]: 25
Plant response rating, Barnyardgrass ([2]; Flood, 31 g ai/ha): 0
Plant response rating, Barnyardgrass ([2]; Flood, 62 g ai/ha): 15
Velvetleaf plant response rating [3, 13]: 40
Velvetleaf plant response rating [3, 14]: 50
Plant response rating, Velvetleaf [3, 15]: 10
Plant response rating, Velvetleaf [3, 16]: 10
Morningglory plant response rating [4, 13]: 70
Morningglory plant response rating [4, 14]: 80
Plant response rating, Morningglory [4, 15]: 20
Plant response rating, Morningglory [4, 16]: 30
Plant response rating, Sedge, Umbrella [5, 11]: 60
Plant response rating, Sedge, Umbrella [5, 12]: 80
Plant response rating, Sedge, Umbrella ([5]; Flood, 31 g ai/ha): 0
Plant response rating, Sedge, Umbrella ([5]; Flood, 62 g ai/ha): 40
Corn plant response rating (corn (Zea mays); [13]): 20
Corn plant response rating (corn (Zea mays); [14]): 30
Plant response rating, Corn (corn (Zea mays); [17]): 0
Plant response rating, Corn (corn (Zea mays); [16]): 10
Wheat plant response rating [6, 13]: 20
Wheat plant response rating [6, 14]: 40
Plant response rating, Wheat [6, 15]: 0
Plant response rating, Wheat [6, 16]: 0
Barnyardgrass plant response rating [7, 13]: 30
Barnyardgrass plant response rating [7, 14]: 60
Plant response rating, Barnyardgrass [7, 17]: 30
Plant response rating, Barnyardgrass [7, 16]: 80
Foxtail, Giant plant response rating [8, 13]: 40
Foxtail, Giant plant response rating [8, 14]: 90
Plant response rating, Foxtail, Giant [8, 15]: 90
Plant response rating, Foxtail, Giant [8, 16]: 100
Pigweed plant response rating [9, 13]: 90
Pigweed plant response rating [9, 14]: 100
Plant response rating, Pigweed [9, 15]: 70
Plant response rating, Pigweed [9, 16]: 100
Crabgrass, Large plant response rating [10, 13]: 60
Crabgrass, Large plant response rating [10, 14]: 90
Plant response rating, Crabgrass, Large [10, 17]: 100
Plant response rating, Crabgrass, Large [10, 16]: 100

Cc1nn(-c2ccc(C(F)(F)F)cn2)nc1Oc1cccc(C(F)(F)F)c1 [Compound 109]
Plant response rating, Ducksalad [1, 11]: 60
Plant response rating, Ducksalad [1, 12]: 80
Plant response rating, Ducksalad ([1]; Flood, 31 g ai/ha): 0
Plant response rating, Ducksalad ([1]; Flood, 62 g ai/ha): 20
Plant response rating, Rice (rice (Oryza sativa); [11]): 15
Plant response rating, Rice (rice (Oryza sativa); [12]): 25
Plant response rating, Rice (rice (Oryza sativa); Flood, 31 g ai/ha): 15
Plant response rating, Rice (rice (Oryza sativa); Flood, 62 g ai/ha): 15
Plant response rating, Barnyardgrass [2, 11]: 40
Plant response rating, Barnyardgrass [2, 12]: 75
Plant response rating, Barnyardgrass ([2]; Flood, 31 g ai/ha): 0
Plant response rating, Barnyardgrass ([2]; Flood, 62 g ai/ha): 20
Velvetleaf plant response rating [3, 18]: 80
Velvetleaf plant response rating [3, 19]: 30
Morningglory plant response rating [4, 18]: 90
Morningglory plant response rating [4, 19]: 50
Plant response rating, Sedge, Umbrella [5, 11]: 85
Plant response rating, Sedge, Umbrella [5, 12]: 85
Plant response rating, Sedge, Umbrella ([5]; Flood, 31 g ai/ha): 38
Plant response rating, Sedge, Umbrella ([5]; Flood, 62 g ai/ha): 63
Corn plant response rating (corn (Zea mays); [18]): 90
Corn plant response rating (corn (Zea mays); [19]): 40
Wheat plant response rating [6, 18]: 50
Wheat plant response rating [6, 19]: 20
Barnyardgrass plant response rating [7, 18]: 90
Barnyardgrass plant response rating [7, 19]: 100
Foxtail, Giant plant response rating [8, 18]: 90
Foxtail, Giant plant response rating [8, 19]: 100
Pigweed plant response rating [9, 18]: 100
Pigweed plant response rating [9, 19]: 100
Crabgrass, Large plant response rating [10, 18]: 90
Crabgrass, Large plant response rating [10, 19]: 100

Cc1nn(-c2ccc(C(F)(F)F)cc2)nc1Oc1cccc(C(F)(F)F)c1 [Compound 111]
Plant response rating, Ducksalad [1, 11]: 70
Plant response rating, Ducksalad [1, 12]: 80
Plant response rating, Ducksalad ([1]; Flood, 31 g ai/ha): 0
Plant response rating, Ducksalad ([1]; Flood, 62 g ai/ha): 30
Plant response rating, Rice (rice (Oryza sativa); [11]): 25
Plant response rating, Rice (rice (Oryza sativa); [12]): 30
Plant response rating, Rice (rice (Oryza sativa); Flood, 31 g ai/ha): 0
Plant response rating, Rice (rice (Oryza sativa); Flood, 62 g ai/ha): 0
Plant response rating, Barnyardgrass [2, 11]: 20
Plant response rating, Barnyardgrass [2, 12]: 35
Plant response rating, Barnyardgrass ([2]; Flood, 31 g ai/ha): 0
Plant response rating, Barnyardgrass ([2]; Flood, 62 g ai/ha): 0
Velvetleaf plant response rating [3, 13]: 20
Velvetleaf plant response rating [3, 14]: 70
Plant response rating, Velvetleaf [3, 15]: 0
Plant response rating, Velvetleaf [3, 16]: 50
Morningglory plant response rating [4, 13]: 70
Morningglory plant response rating [4, 14]: 100
Plant response rating, Morningglory [4, 15]: 0
Plant response rating, Morningglory [4, 16]: 30
Plant response rating, Sedge, Umbrella [5, 11]: 80
Plant response rating, Sedge, Umbrella [5, 12]: 85
Plant response rating, Sedge, Umbrella ([5]; Flood, 31 g ai/ha): 45
Plant response rating, Sedge, Umbrella ([5]; Flood, 62 g ai/ha): 65
Corn plant response rating (corn (Zea mays); [13]): 20
Corn plant response rating (corn (Zea mays); [14]): 30
Plant response rating, Corn (corn (Zea mays); [15]): 0
Plant response rating, Corn (corn (Zea mays); [16]): 20
Wheat plant response rating [6, 13]: 10
Wheat plant response rating [6, 14]: 40
Plant response rating, Wheat [6, 15]: 0
Plant response rating, Wheat [6, 16]: 0
Barnyardgrass plant response rating [7, 13]: 20
Barnyardgrass plant response rating [7, 14]: 30
Plant response rating, Barnyardgrass [7, 15]: 20
Plant response rating, Barnyardgrass [7, 16]: 80
Foxtail, Giant plant response rating [8, 13]: 80
Foxtail, Giant plant response rating [8, 14]: 90
Plant response rating, Foxtail, Giant [8, 15]: 70
Plant response rating, Foxtail, Giant [8, 16]: 100
Pigweed plant response rating [9, 13]: 90
Pigweed plant response rating [9, 14]: 90
Plant response rating, Pigweed [9, 15]: 70
Plant response rating, Pigweed [9, 16]: 90
Crabgrass, Large plant response rating [10, 13]: 90
Crabgrass, Large plant response rating [10, 14]: 90
Plant response rating, Crabgrass, Large [10, 15]: 80
Plant response rating, Crabgrass, Large [10, 16]: 100

Cc1nn(-c2ccc(C(F)(F)F)cc2)nc1Cn1ccc(C(F)(F)F)n1 [Compound 117]
Plant response rating, Ducksalad [1, 11]: 80
Plant response rating, Ducksalad [1, 12]: 85
Plant response rating, Ducksalad ([1]; Flood, 31 g ai/ha): 30
Plant response rating, Ducksalad ([1]; Flood, 62 g ai/ha): 50
Plant response rating, Rice (rice (Oryza sativa); [11]): 25
Plant response rating, Rice (rice (Oryza sativa); [12]): 40
Plant response rating, Rice (rice (Oryza sativa); Flood, 31 g ai/ha): 15
Plant response rating, Rice (rice (Oryza sativa); Flood, 62 g ai/ha): 15
Plant response rating, Barnyardgrass [2, 11]: 65
Plant response rating, Barnyardgrass [2, 12]: 80
Plant response rating, Barnyardgrass ([2]; Flood, 31 g ai/ha): 50
Plant response rating, Barnyardgrass ([2]; Flood, 62 g ai/ha): 60
Velvetleaf plant response rating [3, 18]: 100
Velvetleaf plant response rating [3, 19]: 30
Morningglory plant response rating [4, 18]: 90
Morningglory plant response rating [4, 19]: 40
Plant response rating, Sedge, Umbrella [5, 11]: 75
Plant response rating, Sedge, Umbrella [5, 12]: 85
Plant response rating, Sedge, Umbrella ([5]; Flood, 31 g ai/ha): 65
Plant response rating, Sedge, Umbrella ([5]; Flood, 62 g ai/ha): 70
Corn plant response rating (corn (Zea mays); [18]): 40
Corn plant response rating (corn (Zea mays); [19]): 50
Wheat plant response rating [6, 18]: 20
Wheat plant response rating [6, 19]: 10
Barnyardgrass plant response rating [7, 18]: 80
Barnyardgrass plant response rating [7, 19]: 100
Foxtail, Giant plant response rating [8, 18]: 90
Foxtail, Giant plant response rating [8, 19]: 100
Pigweed plant response rating [9, 18]: 100
Pigweed plant response rating [9, 19]: 100
Crabgrass, Large plant response rating [10, 18]: 90
Crabgrass, Large plant response rating [10, 19]: 100
